Each compound was assayed against Aurora B/INCENP (Homo sapiens, UniProt Q96GD4) (assay: Determination of inhibition of AIK: Aurora B/INCENP direct fluorescence polarization (IMAP) assay). Settings: 10 uM ATP, 0.8 nM Aurora B/INCENP; values given as bins; read-out: IC50 of Exemplified Compounds Against AIK B.
Type: biochemical

Aurora B/INCENP, sequence (Q96GD4 whole entry): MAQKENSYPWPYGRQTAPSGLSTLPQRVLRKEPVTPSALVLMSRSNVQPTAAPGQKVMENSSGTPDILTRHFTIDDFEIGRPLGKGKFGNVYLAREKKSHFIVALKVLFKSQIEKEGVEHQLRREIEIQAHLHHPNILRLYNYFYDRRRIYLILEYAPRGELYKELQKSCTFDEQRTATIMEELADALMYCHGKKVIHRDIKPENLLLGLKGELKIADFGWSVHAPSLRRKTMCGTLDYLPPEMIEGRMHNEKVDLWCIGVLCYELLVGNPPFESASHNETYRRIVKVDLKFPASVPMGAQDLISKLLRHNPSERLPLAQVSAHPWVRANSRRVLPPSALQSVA
Aurora B/INCENP, sequence (Q9NQS7 whole entry partner): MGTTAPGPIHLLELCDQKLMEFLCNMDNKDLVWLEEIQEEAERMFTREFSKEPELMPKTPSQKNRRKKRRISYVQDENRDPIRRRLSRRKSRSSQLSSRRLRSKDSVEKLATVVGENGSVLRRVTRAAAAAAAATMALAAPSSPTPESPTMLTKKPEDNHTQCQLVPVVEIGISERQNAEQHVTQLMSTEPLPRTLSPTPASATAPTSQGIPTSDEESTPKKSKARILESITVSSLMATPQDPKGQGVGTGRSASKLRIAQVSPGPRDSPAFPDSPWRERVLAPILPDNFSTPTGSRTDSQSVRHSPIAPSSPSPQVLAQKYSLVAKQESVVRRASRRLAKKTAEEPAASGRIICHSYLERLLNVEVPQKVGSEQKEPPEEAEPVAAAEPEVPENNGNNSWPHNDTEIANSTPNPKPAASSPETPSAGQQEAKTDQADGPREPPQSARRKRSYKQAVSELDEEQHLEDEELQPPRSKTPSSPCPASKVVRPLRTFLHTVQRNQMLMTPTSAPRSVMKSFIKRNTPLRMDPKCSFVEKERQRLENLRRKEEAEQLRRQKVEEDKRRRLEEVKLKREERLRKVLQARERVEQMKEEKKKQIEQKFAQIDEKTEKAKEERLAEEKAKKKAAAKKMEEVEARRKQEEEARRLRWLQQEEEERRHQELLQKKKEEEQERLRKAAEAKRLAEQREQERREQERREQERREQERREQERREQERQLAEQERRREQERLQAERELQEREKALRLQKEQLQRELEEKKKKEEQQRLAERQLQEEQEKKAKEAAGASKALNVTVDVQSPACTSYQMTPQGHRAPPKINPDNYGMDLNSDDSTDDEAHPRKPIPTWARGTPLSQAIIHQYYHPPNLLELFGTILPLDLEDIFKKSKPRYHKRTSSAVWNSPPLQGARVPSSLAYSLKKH

SMILES	IC50
Cc1cnc2[nH]c3c(OC[C@H](CN(C)C)OP(=O)(O)O)ccc(-c4cccc(S(=O)(=O)C5CC5)c4)c3c2c1 [Compound 314, (S)-1-(5-(3-(cyclopropylsulfonyl)phenyl)-3-methyl-9H-pyrido[2,3-b]indol-8-yloxy)-3-(dimethylamino)propan-2-yl dihydrogen phosphate]	4 to 5.5 nM
Cc1cc(Nc2ccc(OCC3CCN(C)CC3)c3[nH]c4ncc(Cl)cc4c23)ccc1N1CCN(C)CC1 [Compound 316, 3-chloro-N-(3-methyl-4-(4-methylpiperazin-1-yl)phenyl)-8-((1-methylpiperidin-4-yl)methoxy)-9H-pyrido[2,3-b]indol-5-amine]	> 13 nM
CCN(CCO)CCOc1ccc(-c2cccc(S(=O)(=O)C3CC3)c2)c2c1[nH]c1ncc(C)cc12 [Compound 318, 2-((2-(5-(3-(cyclopropylsulfonyl)phenyl)-3-methyl-9H-pyrido[2,3-b]indol-8-yloxy)ethyl)(ethyl)amino)ethanol]	8.6 to 13 nM
CCN(CCO)CCOc1ccc(-c2cccc(S(=O)(=O)C3CC3)c2)c2c1[nH]c1ncc(Cl)cc12 [Compound 323, 2-((2-(3-chloro-5-(3-(cyclopropylsulfonyl)phenyl)-9H-pyrido[2,3-b]indol-8-yloxy)ethyl)(ethyl)amino)ethanol]	5.6 to 8.5 nM
CCS(=O)(=O)c1cccc(-c2ccc(OCCN3CCC(O)CC3)c3[nH]c4ncc(Cl)cc4c23)c1 [Compound 327, 1-(2-(3-chloro-5-(3-(ethylsulfonyl)phenyl)-9H-pyrido[2,3-b]indol-8-yloxy)ethyl)piperidin-4-ol]	8.6 to 13 nM
CCS(=O)(=O)c1cccc(-c2ccc(OCCn3ccnc3)c3[nH]c4ncc(C)cc4c23)c1 [Compound 333, 8-(2-(1H-imidazol-1-yl)ethoxy)-5-(3-(ethylsulfonyl)phenyl)-3-methyl-9H-pyrido[2,3-b]indole]	> 13 nM
Cc1cnc2[nH]c3c(OCCCN(CCO)CC(F)(F)F)ccc(-c4cccc(S(=O)(=O)C5CC5)c4)c3c2c1 [Compound 339, 2-((3-(5-(3-(cyclopropylsulfonyl)phenyl)-3-methyl-9H-pyrido[2,3-b]indol-8-yloxy)propyl)(2,2,2-trifluoroethyl)amino)ethanol]	> 13 nM
CCS(=O)(=O)c1cccc(-c2ccc(OCCCN(CCO)CC(F)(F)F)c3[nH]c4ncc(C)cc4c23)c1 [Compound 340, 2-((3-(5-(3-(ethylsulfonyl)phenyl)-3-methyl-9H-pyrido[2,3-b]indol-8-yloxy)propyl)(2,2,2-trifluoroethyl)amino)ethanol]	> 13 nM
Cc1cnc2[nH]c3c(OCCCN(CCO)CC(F)F)ccc(-c4cccc(S(=O)(=O)C5CC5)c4)c3c2c1 [Compound 341, 2-((3-(5-(3-(cyclopropylsulfonyl)phenyl)-3-methyl-9H-pyrido[2,3-b]indol-8-yloxy)propyl)(2,2-difluoroethyl)amino)ethanol]	> 13 nM
Cc1cnc2[nH]c3c(OCCCN4CCC(COP(=O)(O)O)CC4)ccc(-c4cccc(S(=O)(=O)C5CC5)c4)c3c2c1 [Compound 347, (1-(3-(5-(3-(cyclopropylsulfonyl)phenyl)-3-methyl-9H-pyrido[2,3-b]indol-8-yloxy)propyl)piperidin-4-yl)methyl dihydrogen phosphate]	< 4 nM
CCS(=O)(=O)c1cccc(-c2ccc(OCCCOP(=O)(O)O)c3[nH]c4ncc(C)cc4c23)c1 [Compound 350, 3-(5-(3-(ethylsulfonyl)phenyl)-3-methyl-9H-pyrido[2,3-b]indol-8-yloxy)propyl dihydrogen phosphate]	< 4 nM
Cc1cnc2[nH]c3c(OC[C@@H]4CNCCO4)ccc(-c4cccc(S(=O)(=O)C5CC5)c4)c3c2c1 [Compound 358, (S)-2-((5-(3-(cyclopropylsulfonyl)phenyl)-3-methyl-9H-pyrido[2,3-b]indol-8-yloxy)methyl)morpholine]	< 4 nM
Cc1cnc2[nH]c3c(OC[C@H]4CNCCO4)ccc(-c4cccc(S(=O)(=O)C5CC5)c4)c3c2c1 [Compound 359, (R)-2-((5-(3-(cyclopropylsulfonyl)phenyl)-3-methyl-9H-pyrido[2,3-b]indol-8-yloxy)methyl)morpholine]	< 4 nM
Cc1cnc2[nH]c3c(OC[C@@H]4CN(CCO)CCO4)ccc(-c4cccc(S(=O)(=O)C5CC5)c4)c3c2c1 [Compound 363, (S)-2-(2-((5-(3-(cyclopropylsulfonyl)phenyl)-3-methyl-9H-pyrido[2,3-b]indol-8-yloxy)methyl)morpholino)ethanol]	4 to 5.5 nM
Cc1cnc2[nH]c3c(OC[C@@H]4CN(C)CCO4)ccc(-c4cccc(S(=O)(=O)C5CC5)c4)c3c2c1 [Compound 370, (S)-2-((5-(3-(cyclopropylsulfonyl)phenyl)-3-methyl-9H-pyrido[2,3-b]indol-8-yloxy)methyl)-4-methylmorpholine]	4 to 5.5 nM
Cc1cnc2[nH]c3c(OC[C@H]4CN(C)CCO4)ccc(-c4cccc(S(=O)(=O)C5CC5)c4)c3c2c1 [Compound 371, (R)-2-((5-(3-(cyclopropylsulfonyl)phenyl)-3-methyl-9H-pyrido[2,3-b]indol-8-yloxy)methyl)-4-methylmorpholine]	< 4 nM
Cc1cnc2[nH]c3c(OC[C@@H]4CN(CCOP(=O)(O)O)CCO4)ccc(-c4cccc(S(=O)(=O)C5CC5)c4)c3c2c1 [Compound 373, (S)-2-(2-((5-(3-(cyclopropylsulfonyl)phenyl)-3-methyl-9H-pyrido[2,3-b]indol-8-yloxy)methyl)morpholino)ethyl dihydrogen phosphate]	4 to 5.5 nM

Continued, values first:

IC50	SMILES
< 4 nM	CCN(CCO)CCCOc1ccc(-c2cccc(S(=O)(=O)CC)c2)c2c1[nH]c1ncc(Cl)cc12 [Compound 293, 2-((3-(3-chloro-5-(3-(ethylsulfonyl)phenyl)-9H-pyrido[2,3-b]indol-8-yloxy)propyl)(ethyl)amino)ethanol]
< 4 nM	CCN(CCCOc1ccc(-c2cccc(S(=O)(=O)CC)c2)c2c1[nH]c1ncc(Cl)cc12)CCOP(=O)(O)O [Compound 294, 2-((3-(3-chloro-5-(3-(ethylsulfonyl)phenyl)-9H-pyrido[2,3-b]indol-8-yloxy)propyl)(ethyl)amino)ethyl dihydrogen phosphate]
< 4 nM	CCN(CCO)CCCOc1ccc(-c2cccc(S(=O)(=O)C3CC3)c2)c2c1[nH]c1ncc(Cl)cc12 [Compound 298, 2-((3-(3-chloro-5-(3-(cyclopropylsulfonyl)phenyl)-9H-pyrido[2,3-b]indol-8-yloxy)propyl)(ethyl)amino)ethanol]
< 4 nM	Cc1cnc2[nH]c3c(OCCCN4CCC(O)CC4)ccc(-c4cccc(S(=O)(=O)C5CC5)c4)c3c2c1 [Compound 300, 1-(3-(5-(3-(cyclopropylsulfonyl)phenyl)-3-methyl-9H-pyrido[2,3-b]indol-8-yloxy)propyl)piperidin-4-ol]
< 4 nM	CCS(=O)(=O)c1cccc(-c2ccc(OCCCn3ccnc3)c3[nH]c4ncc(Cl)cc4c23)c1 [Compound 301, 8-(3-(1H-imidazol-1-yl)propoxy)-3-chloro-5-(3-(ethylsulfonyl)phenyl)-9H-pyrido[2,3-b]indole]
< 4 nM	CCS(=O)(=O)c1cccc(-c2ccc(OCCCN(C)CCO)c3[nH]c4ncc(C)cc4c23)c1 [Compound 305, 2-((3-(5-(3-(ethylsulfonyl)phenyl)-3-methyl-9H-pyrido[2,3-b]indol-8-yloxy)propyl)(methyl)amino)ethanol]
< 4 nM	CCS(=O)(=O)c1cccc(-c2ccc(OCCCN(C)CCOP(=O)(O)O)c3[nH]c4ncc(C)cc4c23)c1 [Compound 308, 2-((3-(5-(3-(ethylsulfonyl)phenyl)-3-methyl-9H-pyrido[2,3-b]indol-8-yloxy)propyl)(methyl)amino)ethyl dihydrogen phosphate]
< 4 nM	Cc1cnc2[nH]c3c(OC[C@@H](O)CN(C)C)ccc(-c4cccc(S(=O)(=O)C5CC5)c4)c3c2c1 [Compound 313, (S)-1-(5-(3-(cyclopropylsulfonyl)phenyl)-3-methyl-9H-pyrido[2,3-b]indol-8-yloxy)-3-(dimethylamino)propan-2-ol]
< 4 nM	Cc1cnc2[nH]c3c(OC[C@@H](CN(C)C)OP(=O)(O)O)ccc(-c4cccc(S(=O)(=O)C5CC5)c4)c3c2c1 [Compound 315, (R)-1-(5-(3-(cyclopropylsulfonyl)phenyl)-3-methyl-9H-pyrido[2,3-b]indol-8-yloxy)-3-(dimethylamino)propan-2-yl dihydrogen phosphate]
< 4 nM	CN(CCO)CCOc1ccc(-c2cccc(S(=O)(=O)C3CC3)c2)c2c1[nH]c1ncc(Cl)cc12 [Compound 319, 2-((2-(3-chloro-5-(3-(cyclopropylsulfonyl)phenyl)-9H-pyrido[2,3-b]indol-8-yloxy)ethyl)(methyl)amino)ethanol]
< 4 nM	Cc1cnc2[nH]c3c(OCCN4CCC(O)CC4)ccc(-c4cccc(S(=O)(=O)C5CC5)c4)c3c2c1 [Compound 322, 1-(2-(5-(3-(cyclopropylsulfonyl)phenyl)-3-methyl-9H-pyrido[2,3-b]indol-8-yloxy)ethyl)piperidin-4-ol]
< 4 nM	O=S(=O)(c1cccc(-c2ccc(OCCN3CCC(O)CC3)c3[nH]c4ncc(Cl)cc4c23)c1)C1CC1 [Compound 325, 1-(2-(3-chloro-5-(3-(cyclopropylsulfonyl)phenyl)-9H-pyrido[2,3-b]indol-8-yloxy)ethyl)piperidin-4-ol]
< 4 nM	CCS(=O)(=O)c1cccc(-c2ccc(OCCCN(CCOP(=O)(O)O)CC(F)(F)F)c3[nH]c4ncc(C)cc4c23)c1 [Compound 343, 2-((3-(5-(3-(ethylsulfonyl)phenyl)-3-methyl-9H-pyrido[2,3-b]indol-8-yloxy)propyl)(2,2,2-trifluoroethyl)amino)ethyl dihydrogen phosphate]
< 4 nM	Cc1cnc2[nH]c3c(OCC4CCN(CCO)CC4)ccc(-c4cccc(S(=O)(=O)C5CC5)c4)c3c2c1 [Compound 345, 2-(4-((5-(3-(cyclopropylsulfonyl)phenyl)-3-methyl-9H-pyrido[2,3-b]indol-8-yloxy)methyl)piperidin-1-yl)ethanol]
< 4 nM	Cc1cnc2[nH]c3c(OCC4CCN(CCOP(=O)(O)O)CC4)ccc(-c4cccc(S(=O)(=O)C5CC5)c4)c3c2c1 [Compound 346, 2-(4-((5-(3-(cyclopropylsulfonyl)phenyl)-3-methyl-9H-pyrido[2,3-b]indol-8-yloxy)methyl)piperidin-1-yl)ethyl dihydrogen phosphate]

Source: US20090312288A1 (TAKEDA PHARMACEUTICAL COMPANY LIMITED, priority 2008, published 2009)
